Laboratory results taken from ChEMBL document CHEMBL4270538, “Targeting prohibitin with small molecules to promote melanogenesis and apoptosis in melanoma cells” (Eur J Med Chem, 2018).
Calls of active or inactive are those of the source. The calls are words filed in the database; no cut-off is given here.

Assays:
[1] = target: T1, Prohibitin 1 (Homo sapiens) (UniProt P35232); assay: Downregulation of PHB1 in human HBL cells at 0.1 to 10 uM after 24 to 48 hrs by Western blot analysis; format: cell-based
T1 sequence (whole entry): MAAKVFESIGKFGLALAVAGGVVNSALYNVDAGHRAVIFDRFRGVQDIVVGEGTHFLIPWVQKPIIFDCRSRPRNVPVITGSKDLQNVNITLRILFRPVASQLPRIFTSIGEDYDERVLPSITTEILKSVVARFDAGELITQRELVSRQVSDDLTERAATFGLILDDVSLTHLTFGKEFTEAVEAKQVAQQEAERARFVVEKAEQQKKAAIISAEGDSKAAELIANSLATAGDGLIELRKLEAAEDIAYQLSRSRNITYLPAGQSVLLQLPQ

[2] = target: Prohibitin-2 (Homo sapiens) (UniProt Q99623); assay: Induction of PHB2-mediated melanogenesis in human HBL cells assessed as pigmentation at 1 uM after 10 days relative to control; format: cell-based
Prohibitin-2 (Homo sapiens), sequence (Q99623 whole entry): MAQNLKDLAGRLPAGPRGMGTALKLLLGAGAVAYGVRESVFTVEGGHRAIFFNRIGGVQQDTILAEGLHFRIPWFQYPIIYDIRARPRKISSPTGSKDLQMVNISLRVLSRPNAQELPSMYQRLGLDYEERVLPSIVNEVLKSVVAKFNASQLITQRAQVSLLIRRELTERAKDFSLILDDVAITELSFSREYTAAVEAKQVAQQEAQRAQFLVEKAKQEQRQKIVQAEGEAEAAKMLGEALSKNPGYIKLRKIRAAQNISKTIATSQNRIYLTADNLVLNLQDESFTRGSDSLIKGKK

[3] = target: Prohibitin-2 (Homo sapiens) (UniProt Q99623); assay: Induction of PHB2-mediated melanogenesis in human HBL cells assessed as pigmentation at 10 uM after 10 days relative to control; format: cell-based
[4] = target: Prohibitin-2 (Homo sapiens) (UniProt Q99623); assay: Induction of PHB2-mediated melanogenesis in human MM043 cells assessed as pigmentation at 1 to 10 uM after 10 days relative to control; format: cell-based
[5] = target: Prohibitin-2 (Homo sapiens) (UniProt Q99623); assay: Induction of PHB2-mediated melanogenesis in human MM162 cells assessed as pigmentation at 1 to 10 uM after 10 days relative to control; format: cell-based
[6] = target: Prohibitin-2 (Homo sapiens) (UniProt Q99623); assay: Binding affinity to PHB2 in human HBL cells assessed as upregulation of MITF protein expression at 0.1 to 10 uM after 24 to 48 hrs by Western blot analysis; format: cell-based
[7] = target: Prohibitin-2 (Homo sapiens) (UniProt Q99623); assay: Binding affinity to PHB2 in human HBL cells assessed as upregulation of tyrosinase protein expression at 0.1 to 10 uM after 24 to 48 hrs by Western blot analysis; format: cell-based
[8] = target: Prohibitin-2 (Homo sapiens) (UniProt Q99623); assay: Binding affinity to PHB2 in human HBL cells assessed as LC3-2 accumulation after 24 to 48 hrs by Western blot analysis; format: cell-based
[9] = target: Prohibitin-2 (Homo sapiens) (UniProt Q99623); assay: Induction of PHB2-mediated melanogenesis in human HBL cells assessed as pigmentation at 10 uM after 10 days in presence of autophagy inhibitor PIK-3; format: cell-based
[10] = target: Prohibitin-2 (Homo sapiens) (UniProt Q99623); assay: Induction of PHB2-mediated melanogenesis in human HBL cells assessed as pigmentation at 10 uM after 10 days in presence of autophagy activator HD1; format: cell-based
[11] = target: Prohibitin-2 (Homo sapiens) (UniProt Q99623); assay: Binding affinity to PHB2 in human HBL cells assessed as upregulation of MITF protein expression at 10 uM after 24 in presence of autophagy inhibitor PIK-3 by Western blot analysis; format: cell-based
[12] = target: Prohibitin-2 (Homo sapiens) (UniProt Q99623); assay: Binding affinity to PHB2 in human HBL cells assessed as upregulation of MITF protein expression at 10 uM after 24 in presence of autophagy activator HD1 by Western blot analysis; format: cell-based
[13] = target: Prohibitin-2 (Homo sapiens) (UniProt Q99623); assay: Binding affinity to PHB2 in human HBL cells assessed as LC3-2 accumulation at 10 uM after 24 in presence of autophagy inhibitor PIK-3 by Western blot analysis; format: cell-based
[14] = target: Prohibitin-2 (Homo sapiens) (UniProt Q99623); assay: Binding affinity to PHB2 in human HBL cells assessed as LC3-2 accumulation at 10 uM after 24 in presence of autophagy activator HD1 by Western blot analysis; format: cell-based
[15] = target: Prohibitin-2 (Homo sapiens) (UniProt Q99623); assay: Binding affinity to PHB2 in human HBL cells assessed as upregulation of ERK phosphorylation at 0.1 to 10 uM after 24 hrs by Western blot analysis; format: cell-based
[16] = target: Prohibitin-2 (Homo sapiens) (UniProt Q99623); assay: Binding affinity to PHB2 in human HBL cells assessed as feedback mechanism based inhibition of ERK phosphorylation at 0.1 to 10 uM after 48 hrs by Western blot analysis; format: cell-based
[17] = target: Prohibitin-2 (Homo sapiens) (UniProt Q99623); assay: Downregulation of PHB2 in human HBL cells at 0.1 to 10 uM after 24 to 48 hrs by Western blot analysis; format: cell-based
[18] = target: RAC-alpha serine/threonine-protein kinase (Homo sapiens) (UniProt P31749); assay: Inhibition of Akt phosphorylation in human HBL cells at 0.1 to 10 uM after 24 to 48 hrs by Western blot analysis; format: cell-based
RAC-alpha serine/threonine-protein kinase (Homo sapiens), sequence (P31749 whole entry): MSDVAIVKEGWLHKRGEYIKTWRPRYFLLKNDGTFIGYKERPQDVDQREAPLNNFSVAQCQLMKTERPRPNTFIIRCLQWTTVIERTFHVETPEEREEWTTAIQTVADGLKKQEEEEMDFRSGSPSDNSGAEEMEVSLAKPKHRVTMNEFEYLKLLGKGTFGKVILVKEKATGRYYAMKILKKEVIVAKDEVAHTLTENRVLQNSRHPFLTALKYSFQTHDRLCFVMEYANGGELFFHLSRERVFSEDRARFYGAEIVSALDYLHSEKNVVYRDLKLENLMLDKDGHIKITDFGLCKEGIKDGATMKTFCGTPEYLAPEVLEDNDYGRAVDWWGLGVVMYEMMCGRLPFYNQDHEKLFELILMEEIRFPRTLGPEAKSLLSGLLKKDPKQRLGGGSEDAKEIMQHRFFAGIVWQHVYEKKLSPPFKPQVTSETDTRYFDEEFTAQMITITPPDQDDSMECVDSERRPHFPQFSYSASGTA

[19] = target: T1, Prohibitin 1 (Homo sapiens); assay: Downregulation of PHB1 in human MM043 cells at 0.1 to 10 uM after 24 hrs by Western blot analysis; format: cell-based
[20] = target: Prohibitin-2 (Homo sapiens) (UniProt Q99623); assay: Downregulation of PHB2 in human MM043 cells at 0.1 to 10 uM after 24 hrs by Western blot analysis; format: cell-based
[21] = target: RAC-alpha serine/threonine-protein kinase (Homo sapiens) (UniProt P31749); assay: Inhibition of Akt phosphorylation in human MM043 cells at 0.1 to 10 uM after 24 hrs by Western blot analysis; format: cell-based
[22] = target: T1, Prohibitin 1 (Homo sapiens); assay: Downregulation of PHB1 in human MM162 cells at 0.1 to 10 uM after 24 hrs by Western blot analysis; format: cell-based
[23] = target: Prohibitin-2 (Homo sapiens) (UniProt Q99623); assay: Downregulation of PHB2 in human MM162 cells at 0.1 to 10 uM after 24 hrs by Western blot analysis; format: cell-based
[24] = target: RAC-alpha serine/threonine-protein kinase (Homo sapiens) (UniProt P31749); assay: Inhibition of Akt phosphorylation in human MM162 cells at 0.1 to 10 uM after 24 hrs by Western blot analysis; format: cell-based
[25] = system: HL-60; assay: Inhibition of cell proliferation in human HL60 cells after 72 hrs by MTS assay; format: functional, cell-based; details: HL-60, 72 h
[26] = system: KB; assay: Inhibition of cell proliferation in human KB cells after 72 hrs by MTS assay; format: functional, cell-based
[27] = system: HBL; assay: Induction of apoptosis in human HBL cells at 1 to 10 uM after 48 hrs by Annexin V-PE/7-AAD staining based flow cytometry; format: functional, cell-based
[28] = organism: Homo sapiens; assay: Induction of apoptosis in human MM043 cells at 1 to 10 uM after 48 hrs by Annexin V-PE/7-AAD staining based flow cytometry; format: functional, cell-based
[29] = organism: Homo sapiens; assay: Induction of apoptosis in human MM162 cells at 1 to 10 uM after 48 hrs by Annexin V-PE/7-AAD staining based flow cytometry; format: functional, cell-based
[30] = target: T1, Prohibitin 1 (Homo sapiens); assay: Downregulation of PHB1 in human HL60 cells at 0.1 to 10 uM after 24 hrs by Western blot analysis; format: cell-based
[31] = target: Prohibitin-2 (Homo sapiens) (UniProt Q99623); assay: Downregulation of PHB2 in human HL60 cells at 0.1 to 10 uM after 24 hrs by Western blot analysis; format: cell-based
[32] = target: Prohibitin-2 (Homo sapiens) (UniProt Q99623); assay: Binding affinity to PHB2 in human HL60 cells assessed as LC3-2 accumulation at 0.1 to 10 uM after 24 hrs by Western blot analysis; format: cell-based
[33] = target: Prohibitin-2 (Homo sapiens) (UniProt Q99623); assay: Binding affinity to PHB2 in human HL60 cells assessed as upregulation of ERK phosphorylation at 0.1 uM after 24 hrs by Western blot analysis; format: cell-based
[34] = target: RAC-alpha serine/threonine-protein kinase (Homo sapiens) (UniProt P31749); assay: Inhibition of Akt phosphorylation in human HL60 cells after 24 to 48 hrs by Western blot analysis; format: cell-based

SMILES	Activity [1]	fold change (FC) [2]	fold change (FC) [3]	Activity [4]	Activity [5]	Activity [6]	Activity [7]	Activity [8]	Activity [15]	inhibition [16]	Activity [17]	inhibition [18]	IC50 [25] [µM]	IC50 [26] [µM]	Activity [30]	Activity [31]	Activity [32]	Activity [33]	inhibition [34]	also measured
Fc1cccc(CNc2nc(Oc3c(F)c(F)c(F)c(F)c3F)nc(N3CCC(N4CCCCC4)CC3)n2)c1	Active	1.15	2.01	Active	Active	Active	Active	Dose-dependent effect	Active	Active	Active	Active	25	46	Active	Active	Active	Active	Dose-dependent effect	Activity [9]: inactive; Activity [10]: Active; Activity [11]: inactive; Activity [12]: Active; Activity [13]: inactive; Activity [14]: Active; Activity [19]: Active; Activity [20]: Active; inhibition [21]: Active; Activity [22]: Active; Activity [23]: Active; inhibition [24]: Active; Activity [27]: Active; Activity [28]: Active; Activity [29]: Active
CN(C)CCNc1nc(Oc2c(F)c(F)c(F)c(F)c2F)nc(N2CCCc3ccccc3C2)n1	Active	0.89	2.23	Active	Active	Active	Active	Dose-dependent effect	Active	Active	Active	Active	95	63	Active	Active	Active	Active	Dose-dependent effect	–
